{"source": "patent US7855213B2", "about": "(AstraZeneca AB, priority 2006, dated 2010)", "note": "pIC50: −log10 of the molar value."}
{"biological_target": "T1, human β-Secretase (Homo sapiens, UniProt P56817)", "T1 construct": "The soluble part of the human β-Secretase (AA 1-AA 460) was cloned; made in house", "T1 sequence (P56817 22-460)": "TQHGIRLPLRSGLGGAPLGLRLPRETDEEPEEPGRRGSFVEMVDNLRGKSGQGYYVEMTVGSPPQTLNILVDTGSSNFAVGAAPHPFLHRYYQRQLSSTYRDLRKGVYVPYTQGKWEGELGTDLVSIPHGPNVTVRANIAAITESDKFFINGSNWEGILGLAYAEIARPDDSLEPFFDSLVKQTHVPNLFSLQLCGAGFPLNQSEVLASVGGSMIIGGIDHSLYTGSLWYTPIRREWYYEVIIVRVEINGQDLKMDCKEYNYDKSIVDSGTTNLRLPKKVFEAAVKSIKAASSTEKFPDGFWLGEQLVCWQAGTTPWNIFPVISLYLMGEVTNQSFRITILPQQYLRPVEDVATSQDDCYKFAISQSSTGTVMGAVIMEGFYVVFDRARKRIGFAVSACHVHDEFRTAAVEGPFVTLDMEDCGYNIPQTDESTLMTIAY", "experiment": "TR-FRET assay", "assay_type": "biochemical"}
{"smiles": "Cc1nn(C)c(Cl)c1S(=O)(=O)Oc1cccc(C2(c3cc(Cl)nc(Cl)c3)N=C(N)c3ccccc32)c1", "note": "(centres unmarked) [Example 131, 3-[3-Amino-1-(2,6-dichloropyridin-4-yl)-1H-isoindol-1-yl]phenyl 5-chloro-1,3-dimethyl-1H-pyrazole-4-sulfonate]", "pIC50": 5.97}
{"smiles": "NC1=NC(c2cccc(OS(=O)(=O)c3c(F)cccc3F)c2)(c2cc(Cl)nc(Cl)c2)c2ccccc21", "note": "(centres unmarked) [Example 133, 3-[3-Amino-1-(2,6-dichloropyridin-4-yl)-1H-isoindol-1-yl]phenyl 2,6-difluorobenzenesulfonate]", "pIC50": 5.49}
{"smiles": "NC1=NC(c2cccc(OS(=O)(=O)C(F)(F)F)c2)(c2ccc(F)c(-c3cncnc3)c2)c2ccccc21", "note": "(centres unmarked) [Example 134, 3-[3-Amino-1-(4-fluoro-3-pyrimidin-5-ylphenyl)-1H-isoindol-1-yl]phenyl trifluoromethanesulfonate]", "pIC50": 6.46}
{"smiles": "NC1=NC(c2cccc(OS(=O)(=O)C(F)(F)F)c2)(c2ccc(F)c(-c3cccnc3F)c2)c2ccccc21", "note": "(centres unmarked) [Example 135]", "pIC50": 6.57}
{"smiles": "NC1=NC(c2ccc(OS(=O)(=O)C(F)(F)F)cc2)(c2ccc(F)c(-c3cncnc3)c2)c2ccccc21", "note": "(centres unmarked) [Example 136, 4-[3-Amino-1-(4-fluoro-3-pyrimidin-5-ylphenyl)-1H-isoindol-1-yl]phenyl trifluoromethanesulfonate]", "pIC50": 6.34}
